These are literature values, as cited in patent publication US20050064563A1, “Nucleic acids for aminocoumarin biosynthesis” (priority 2001, published 2005).

The data set addresses intact gyrase (bacterial DNA gyrase) (Escherichia coli, UniProt P0AES6). Particulars: intact gyrase heterotetramer; Peng et al. (1993) J. Biol. Chem. 268: 24481-24490; read-out: concentration achieving 50% inhibition of gyrase.

Take `CO[C@H]1[C@H](OC(=O)c2ccc(C)[nH]2)[C@H](O)[C@@H](Oc2ccc3c(O)c(NC(=O)c4c[nH]c(C(=O)Nc5c(O)c6ccc(O[C@H]7OC(C)(C)[C@@H](OC)[C@H](OC(=O)c8ccc(C)[nH]8)[C@@H]7O)c(C)c6oc5=O)c4C)c(=O)oc3c2C)OC1(C)C` [coumermycin A1]: the IC50 was 4 nM.
